{
  "source": "paper PMC8552465",
  "about": "(ACS Omega, 2021)",
  "key": {"[1]": {"molecular_target": "T1, recombinant human MAO-A (Homo sapiens, UniProt P21397)", "T1 sequence (P21397 1-527)": "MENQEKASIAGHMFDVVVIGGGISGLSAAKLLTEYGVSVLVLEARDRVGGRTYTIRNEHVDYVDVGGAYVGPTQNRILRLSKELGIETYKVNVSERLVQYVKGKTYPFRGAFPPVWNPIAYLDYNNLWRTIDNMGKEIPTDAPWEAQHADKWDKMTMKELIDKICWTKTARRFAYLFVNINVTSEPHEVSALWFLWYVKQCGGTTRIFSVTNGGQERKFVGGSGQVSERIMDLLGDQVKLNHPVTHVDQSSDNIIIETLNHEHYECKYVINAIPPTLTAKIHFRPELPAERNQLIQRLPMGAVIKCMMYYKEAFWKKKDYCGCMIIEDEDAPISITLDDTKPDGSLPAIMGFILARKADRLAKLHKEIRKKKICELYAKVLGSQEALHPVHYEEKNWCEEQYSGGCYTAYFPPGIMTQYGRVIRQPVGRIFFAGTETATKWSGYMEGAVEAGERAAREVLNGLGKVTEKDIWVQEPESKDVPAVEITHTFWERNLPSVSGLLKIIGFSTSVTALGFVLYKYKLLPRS", "test": "MAO-A inhibition assay", "assay_type": "biochemical"}, "[2]": {"molecular_target": "T2, MAO-B (Homo sapiens, UniProt P27338)", "T2 sequence (P27338 1-520)": "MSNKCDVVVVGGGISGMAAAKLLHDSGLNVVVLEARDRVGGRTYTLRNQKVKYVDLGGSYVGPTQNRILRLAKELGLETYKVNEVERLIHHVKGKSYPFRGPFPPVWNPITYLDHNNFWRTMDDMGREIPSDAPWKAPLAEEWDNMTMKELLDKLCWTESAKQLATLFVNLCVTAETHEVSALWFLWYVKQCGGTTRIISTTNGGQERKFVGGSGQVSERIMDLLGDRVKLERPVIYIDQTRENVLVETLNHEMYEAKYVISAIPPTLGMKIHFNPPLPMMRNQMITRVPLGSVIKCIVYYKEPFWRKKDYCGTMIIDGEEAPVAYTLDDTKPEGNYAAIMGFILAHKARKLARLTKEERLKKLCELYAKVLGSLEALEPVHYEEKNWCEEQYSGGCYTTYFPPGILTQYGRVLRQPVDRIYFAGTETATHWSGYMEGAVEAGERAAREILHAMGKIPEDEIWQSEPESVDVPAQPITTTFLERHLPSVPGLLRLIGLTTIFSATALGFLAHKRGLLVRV", "test": "MAO-B inhibition assay", "assay_type": "biochemical", "details": "read-out: residual activity at 10 μM (%) MAO-B"}, "[3]": {"molecular_target": "AChE (Electrophorus electricus, UniProt O42275)", "sequence (O42275 24-633)": "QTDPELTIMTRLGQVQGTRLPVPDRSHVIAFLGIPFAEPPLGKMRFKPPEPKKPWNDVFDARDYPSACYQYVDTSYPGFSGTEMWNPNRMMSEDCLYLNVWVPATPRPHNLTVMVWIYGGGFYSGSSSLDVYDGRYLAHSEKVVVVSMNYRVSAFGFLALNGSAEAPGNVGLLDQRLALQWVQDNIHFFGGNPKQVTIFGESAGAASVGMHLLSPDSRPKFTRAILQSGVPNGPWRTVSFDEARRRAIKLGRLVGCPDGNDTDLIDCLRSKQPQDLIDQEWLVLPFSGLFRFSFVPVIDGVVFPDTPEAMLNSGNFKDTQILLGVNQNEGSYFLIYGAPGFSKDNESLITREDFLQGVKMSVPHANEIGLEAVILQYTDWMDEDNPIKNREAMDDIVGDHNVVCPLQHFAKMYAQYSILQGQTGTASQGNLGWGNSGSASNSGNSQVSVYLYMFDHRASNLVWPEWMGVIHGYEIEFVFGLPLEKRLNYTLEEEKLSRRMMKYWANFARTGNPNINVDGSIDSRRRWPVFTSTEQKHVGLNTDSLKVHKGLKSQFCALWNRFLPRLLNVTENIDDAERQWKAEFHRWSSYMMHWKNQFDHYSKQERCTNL", "test": "AChE inhibition assay", "assay_type": "biochemical"}, "[4]": {"molecular_target": "T3, BChE (Equus caballus, UniProt P81908)", "T3 sequence (P81908 whole entry)": "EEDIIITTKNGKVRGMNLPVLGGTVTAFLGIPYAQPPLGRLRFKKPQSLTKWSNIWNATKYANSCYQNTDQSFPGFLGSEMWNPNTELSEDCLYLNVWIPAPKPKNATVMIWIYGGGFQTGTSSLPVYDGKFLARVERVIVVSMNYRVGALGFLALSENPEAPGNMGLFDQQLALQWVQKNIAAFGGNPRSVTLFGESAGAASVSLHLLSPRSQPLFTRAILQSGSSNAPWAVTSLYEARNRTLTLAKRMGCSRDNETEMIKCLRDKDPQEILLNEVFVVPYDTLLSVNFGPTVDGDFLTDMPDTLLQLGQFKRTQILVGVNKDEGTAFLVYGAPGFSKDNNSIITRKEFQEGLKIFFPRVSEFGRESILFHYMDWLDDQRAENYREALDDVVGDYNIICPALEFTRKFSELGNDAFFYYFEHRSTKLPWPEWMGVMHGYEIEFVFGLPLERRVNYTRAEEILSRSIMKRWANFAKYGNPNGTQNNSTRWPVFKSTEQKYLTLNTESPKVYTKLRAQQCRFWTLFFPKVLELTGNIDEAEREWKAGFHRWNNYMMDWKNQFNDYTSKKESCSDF", "test": "BChE inhibition assay", "assay_type": "biochemical, equine"}, "[5]": {"molecular_target": "BACE-1 (Homo sapiens, UniProt P56817)", "sequence (P56817 46-501)": "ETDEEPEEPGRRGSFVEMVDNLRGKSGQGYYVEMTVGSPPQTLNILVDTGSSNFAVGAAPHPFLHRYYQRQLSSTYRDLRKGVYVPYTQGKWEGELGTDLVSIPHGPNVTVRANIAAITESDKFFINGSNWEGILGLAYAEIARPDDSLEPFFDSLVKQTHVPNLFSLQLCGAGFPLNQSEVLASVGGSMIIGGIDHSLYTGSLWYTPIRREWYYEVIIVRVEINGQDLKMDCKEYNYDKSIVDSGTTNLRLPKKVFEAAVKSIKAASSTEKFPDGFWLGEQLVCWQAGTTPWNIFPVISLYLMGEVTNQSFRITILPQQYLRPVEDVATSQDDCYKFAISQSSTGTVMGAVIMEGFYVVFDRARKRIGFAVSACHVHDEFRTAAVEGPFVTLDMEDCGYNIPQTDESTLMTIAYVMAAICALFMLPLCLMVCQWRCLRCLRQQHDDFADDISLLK", "test": "BACE-1 activity detection kit", "assay_type": "biochemical", "details": "read-out: residual activity at 10 μM (%) BACE-1"}, "[6]": {"molecular_target": "T2, MAO-B", "test": "Kinetics of MAO-B inhibition", "assay_type": "biochemical"}, "[7]": {"molecular_target": "T3, BChE", "test": "Kinetics of BChE inhibition", "assay_type": "biochemical, equine"}, "[8]": {"molecular_target": "T2, MAO-B", "test": "Reversibility of MAO-B inhibition by dialysis", "assay_type": "biochemical"}, "[9]": {"molecular_target": "T3, BChE", "test": "Reversibility of BChE inhibition by dialysis", "assay_type": "biochemical, equine"}, "[10]": {"test": "In vitro toxicity by MTT on Vero cells", "details": "African green monkey, Vero cells (African green monkey kidney epithelial cells), Vero cell viability, up to 100 μg/mL, 48 h, MTT"}, "[11]": {"system": "Vero cells", "test": "In vitro toxicity by MTT on Vero cells"}, "[12]": {"details": "Lineweaver–Burk and secondary plots"}},
  "note": "“And” between values parts separate entries of the source, which are not always exact repeats. Equal entries are not always repeated. “Also recorded” adds a separate entry of the source.",
  "data": [
    {"smiles": "O=C(/C=C/c1ccccc1Cl)c1cc2ccccc2oc1=O", "note": "[CC2, 3-[(2E)-3-(2-chlorophenyl)prop-2-enoyl]-2H-1-benzopyran-2-one]", "values": [
      {"measurement": "IC50", "setting": "[1]", "value": "> 40", "unit": "µM"},
      {"measurement": "remaining activity at 10 µM", "setting": "[1]; read-out: residual activity at 10 μM (%) MAO-A", "value": "76.6 ± 1.8", "unit": "%"},
      {"measurement": "remaining activity at 10 µM", "setting": "[2]", "value": "19.8 ± 5.9", "unit": "%"},
      {"measurement": "IC50", "setting": "[3]; IC50 (μM) AChE, means ± standard errors, reference compounds after preincubation for 30 min with enzymes", "value": "40.1 ± 0.12", "unit": "µM"},
      {"measurement": "remaining activity at 10 µM", "setting": "[3]; read-out: residual activity at 10 μM (%) AChE, 10 μM", "value": "69.4 ± 3.6", "unit": "%"},
      {"measurement": "IC50", "setting": "[4]", "value": "7 ± 0.02", "unit": "µM"},
      {"measurement": "residual activity at 10 μM (%) BChE", "setting": "[4]; 10 μM", "value": "43.9 ± 3.7", "unit": "%"},
      {"measurement": "remaining activity at 10 µM", "setting": "[4]; read-out: residual activity at 10 μM (%) BChE, 10 μM", "value": "< 50", "unit": "%"},
      {"measurement": "remaining activity at 10 µM", "setting": "[5]", "value": "61.1 ± 1", "unit": "%"},
      {"measurement": "Ki", "setting": "[6]", "value": "0.53 ± 0.04", "unit": "µM"},
      {"measurement": "type of MAO-B inhibition", "setting": "[6]; [12]", "value": "competitive"},
      {"measurement": "Ki", "setting": "[7]", "value": "2.84 ± 0.09", "unit": "µM"},
      {"measurement": "type of BChE inhibition", "setting": "[7]; [12]", "value": "competitive"},
      {"measurement": "reversibility of MAO-B inhibition", "setting": "[8]", "value": "reversible"},
      {"measurement": "reversibility of BChE inhibition", "setting": "[9]", "value": "reversible"},
      {"measurement": "viability at 48 h, 100 μg/mL", "setting": "[10]", "value": "~70", "unit": "%"},
      {"measurement": "IC50", "setting": "[11]; Chlorocebus sabaeus, Vero, 48 h, read-out: IC50 Vero cell viability", "value": "142 µg/mL and 456 µM"},
      {"measurement": "Vero cell viability", "setting": "[11]; up to 100 μg/mL, 48 h, MTT", "value": "> 70", "unit": "%"},
      {"measurement": "toxicity for Vero cells", "setting": "[11]; up to a concentration of 100 μg/mL", "value": "nontoxic; also recorded: not toxic"}
    ]}
  ]
}
